Holding throughout (test): pIC50, kinobeads binding competition
Assay [1] deals with CLK4 (UniProt Q9HAZ1). Put shortly: (§1)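 To obtain pIC50, fold changes versus vehicle were fitted to logistic dose-response curves (R drc package) across biological duplicates. Protein binding to Kinobeads was quantified by TMT10 LC-MS/MS of digested bead-bound proteins. Treatments used nine concentrations with a top of 30 μM, applied to live Jurkat cells in 1:4 steps for 60 min at 37 °C before lysis, or to Jurkat lysate or a 1:1:1:1 HEK293/K-562/HepG2/placenta lysate mix in 1:5 steps for 60 min at 4 °C.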

Assay [2] concerns the target T1, LATS2 (UniProt Q9NRM7).
T1 sequence (whole entry): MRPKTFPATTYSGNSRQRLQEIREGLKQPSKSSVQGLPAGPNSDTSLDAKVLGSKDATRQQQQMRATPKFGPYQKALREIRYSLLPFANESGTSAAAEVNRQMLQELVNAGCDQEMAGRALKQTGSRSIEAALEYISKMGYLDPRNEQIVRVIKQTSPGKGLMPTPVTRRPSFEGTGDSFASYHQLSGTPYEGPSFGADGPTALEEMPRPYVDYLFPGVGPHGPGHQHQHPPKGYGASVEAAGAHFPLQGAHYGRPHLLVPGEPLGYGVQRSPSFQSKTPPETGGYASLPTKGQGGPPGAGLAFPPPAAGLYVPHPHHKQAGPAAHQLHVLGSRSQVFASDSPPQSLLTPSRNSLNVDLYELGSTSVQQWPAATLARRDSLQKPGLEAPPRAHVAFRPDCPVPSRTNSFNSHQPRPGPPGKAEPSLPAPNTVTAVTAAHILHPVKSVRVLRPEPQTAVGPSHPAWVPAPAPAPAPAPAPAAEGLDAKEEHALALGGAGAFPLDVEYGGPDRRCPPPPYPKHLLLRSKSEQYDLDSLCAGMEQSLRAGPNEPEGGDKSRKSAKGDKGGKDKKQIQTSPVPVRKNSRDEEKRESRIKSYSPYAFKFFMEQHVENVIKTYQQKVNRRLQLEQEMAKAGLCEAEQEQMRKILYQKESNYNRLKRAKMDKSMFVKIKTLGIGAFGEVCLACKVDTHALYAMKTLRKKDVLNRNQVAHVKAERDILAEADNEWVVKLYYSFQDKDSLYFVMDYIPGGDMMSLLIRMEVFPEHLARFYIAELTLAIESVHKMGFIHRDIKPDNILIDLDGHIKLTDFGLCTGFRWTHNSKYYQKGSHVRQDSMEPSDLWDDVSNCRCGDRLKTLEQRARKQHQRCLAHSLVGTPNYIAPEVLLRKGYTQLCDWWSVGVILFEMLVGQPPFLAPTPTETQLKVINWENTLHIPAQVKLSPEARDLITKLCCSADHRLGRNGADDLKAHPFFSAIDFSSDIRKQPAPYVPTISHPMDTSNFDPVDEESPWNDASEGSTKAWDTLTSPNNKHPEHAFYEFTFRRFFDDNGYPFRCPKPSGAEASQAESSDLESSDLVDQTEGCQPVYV
Put shortly:
as §1

The target in assay [3] is RPS6KA6 (UniProt Q9UK32). As to conditions: cell material: Lysate mix. The method in brief:
as §1

Assay [4] has as its target T2, TBK1 (UniProt Q9UHD2).
T2 sequence (whole entry): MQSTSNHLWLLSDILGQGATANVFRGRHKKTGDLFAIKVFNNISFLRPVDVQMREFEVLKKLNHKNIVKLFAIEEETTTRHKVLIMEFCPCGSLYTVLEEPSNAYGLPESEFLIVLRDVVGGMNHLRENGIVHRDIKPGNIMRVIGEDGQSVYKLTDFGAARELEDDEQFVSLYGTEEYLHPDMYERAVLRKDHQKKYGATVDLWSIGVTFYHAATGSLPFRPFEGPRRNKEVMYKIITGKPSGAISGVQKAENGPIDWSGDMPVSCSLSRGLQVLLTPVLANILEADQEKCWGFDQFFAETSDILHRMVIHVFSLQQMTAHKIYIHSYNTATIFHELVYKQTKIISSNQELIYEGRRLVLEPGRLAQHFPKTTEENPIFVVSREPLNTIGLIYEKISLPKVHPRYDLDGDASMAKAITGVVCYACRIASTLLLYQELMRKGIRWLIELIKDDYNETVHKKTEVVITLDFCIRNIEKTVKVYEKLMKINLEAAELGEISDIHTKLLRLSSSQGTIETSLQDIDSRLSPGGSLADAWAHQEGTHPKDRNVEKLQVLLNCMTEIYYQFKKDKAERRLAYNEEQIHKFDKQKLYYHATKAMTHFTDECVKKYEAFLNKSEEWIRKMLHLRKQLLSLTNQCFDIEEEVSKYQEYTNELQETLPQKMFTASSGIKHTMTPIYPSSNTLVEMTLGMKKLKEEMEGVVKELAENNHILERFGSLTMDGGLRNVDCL
The method in brief: as §1

Assay [5] concerns the target UniProt P80192. Put shortly: as §1
Assay [6] addresses UniProt Q02750. Put shortly:
as §1

Assay [7] deals with UniProt Q02779. As to conditions: cell material: Lysate mix. The method in brief:
as §1

The target in assay [8] is AKT2 (UniProt P31751). The method in brief:
as §1

The target of assay [9] is AXL (UniProt P30530). As to conditions: cell material: Lysate mix. Put shortly: as §1
Assay [10] deals with CDC7 (UniProt O00311). Put shortly:
as §1

The target in assay [11] is UniProt Q9Y6M4. The following applies: cell material: Lysate mix. Put shortly: as §1
Sequence of UniProt Q9Y6M4 (Q9Y6M4 whole entry, looked up): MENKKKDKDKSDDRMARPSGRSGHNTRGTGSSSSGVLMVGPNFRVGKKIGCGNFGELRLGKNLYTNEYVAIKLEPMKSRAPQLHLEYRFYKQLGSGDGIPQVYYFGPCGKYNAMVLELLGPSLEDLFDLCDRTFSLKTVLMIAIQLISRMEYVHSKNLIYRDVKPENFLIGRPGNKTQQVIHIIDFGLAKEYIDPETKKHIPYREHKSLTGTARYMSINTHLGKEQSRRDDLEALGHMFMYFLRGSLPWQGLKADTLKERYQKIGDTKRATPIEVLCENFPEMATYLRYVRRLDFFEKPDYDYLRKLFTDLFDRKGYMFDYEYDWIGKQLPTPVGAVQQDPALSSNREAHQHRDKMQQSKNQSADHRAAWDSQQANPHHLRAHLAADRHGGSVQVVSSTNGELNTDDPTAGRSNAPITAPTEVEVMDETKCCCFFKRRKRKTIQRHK

Sequence of AXL (P30530 whole entry): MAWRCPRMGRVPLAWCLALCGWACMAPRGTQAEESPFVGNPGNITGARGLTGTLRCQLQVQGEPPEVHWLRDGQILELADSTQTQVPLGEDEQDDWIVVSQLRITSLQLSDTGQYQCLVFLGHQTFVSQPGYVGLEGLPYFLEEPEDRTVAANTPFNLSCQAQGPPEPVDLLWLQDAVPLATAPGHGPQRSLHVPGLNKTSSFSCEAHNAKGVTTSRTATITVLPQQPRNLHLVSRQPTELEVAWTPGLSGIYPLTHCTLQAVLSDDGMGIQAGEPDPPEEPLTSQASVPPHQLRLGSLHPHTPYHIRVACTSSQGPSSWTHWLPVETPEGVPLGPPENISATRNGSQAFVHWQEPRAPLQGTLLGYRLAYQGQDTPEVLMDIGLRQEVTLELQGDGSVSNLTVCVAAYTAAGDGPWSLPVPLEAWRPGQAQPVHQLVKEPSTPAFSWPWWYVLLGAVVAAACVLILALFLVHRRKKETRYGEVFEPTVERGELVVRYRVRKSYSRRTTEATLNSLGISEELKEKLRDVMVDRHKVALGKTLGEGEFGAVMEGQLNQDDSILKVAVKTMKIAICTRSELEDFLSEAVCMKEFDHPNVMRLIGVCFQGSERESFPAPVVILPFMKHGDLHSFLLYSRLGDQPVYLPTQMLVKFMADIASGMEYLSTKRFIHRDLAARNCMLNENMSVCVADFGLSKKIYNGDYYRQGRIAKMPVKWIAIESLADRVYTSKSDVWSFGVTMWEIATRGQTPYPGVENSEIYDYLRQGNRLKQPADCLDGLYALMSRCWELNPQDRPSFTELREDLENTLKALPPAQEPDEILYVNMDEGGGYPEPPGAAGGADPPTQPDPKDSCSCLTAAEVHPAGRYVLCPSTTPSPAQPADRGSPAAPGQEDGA
Sequence of UniProt Q02750 (Q02750 whole entry): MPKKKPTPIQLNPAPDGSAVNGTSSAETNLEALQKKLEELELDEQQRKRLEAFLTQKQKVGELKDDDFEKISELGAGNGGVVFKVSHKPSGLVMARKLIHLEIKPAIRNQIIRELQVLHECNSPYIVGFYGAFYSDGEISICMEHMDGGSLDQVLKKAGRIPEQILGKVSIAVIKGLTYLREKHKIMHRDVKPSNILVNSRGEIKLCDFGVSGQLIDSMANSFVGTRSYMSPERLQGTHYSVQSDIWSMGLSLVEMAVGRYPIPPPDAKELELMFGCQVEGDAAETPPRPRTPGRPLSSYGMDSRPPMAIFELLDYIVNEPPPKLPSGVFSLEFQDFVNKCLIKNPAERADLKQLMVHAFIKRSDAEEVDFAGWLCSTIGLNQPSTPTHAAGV
Sequence of AKT2 (P31751 whole entry): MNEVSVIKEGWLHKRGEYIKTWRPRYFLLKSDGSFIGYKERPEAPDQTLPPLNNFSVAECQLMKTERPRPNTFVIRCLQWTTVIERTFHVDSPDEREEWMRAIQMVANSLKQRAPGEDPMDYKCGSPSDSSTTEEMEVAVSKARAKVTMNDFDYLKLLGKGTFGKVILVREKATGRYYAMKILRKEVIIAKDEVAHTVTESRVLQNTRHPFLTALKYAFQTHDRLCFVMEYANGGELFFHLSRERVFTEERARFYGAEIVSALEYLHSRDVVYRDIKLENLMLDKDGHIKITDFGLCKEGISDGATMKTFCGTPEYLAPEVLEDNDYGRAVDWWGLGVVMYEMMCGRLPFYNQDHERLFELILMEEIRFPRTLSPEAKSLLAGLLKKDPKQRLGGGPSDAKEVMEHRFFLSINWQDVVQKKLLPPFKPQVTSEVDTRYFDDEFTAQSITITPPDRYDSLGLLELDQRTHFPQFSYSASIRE
Sequence of RPS6KA6 (Q9UK32 whole entry): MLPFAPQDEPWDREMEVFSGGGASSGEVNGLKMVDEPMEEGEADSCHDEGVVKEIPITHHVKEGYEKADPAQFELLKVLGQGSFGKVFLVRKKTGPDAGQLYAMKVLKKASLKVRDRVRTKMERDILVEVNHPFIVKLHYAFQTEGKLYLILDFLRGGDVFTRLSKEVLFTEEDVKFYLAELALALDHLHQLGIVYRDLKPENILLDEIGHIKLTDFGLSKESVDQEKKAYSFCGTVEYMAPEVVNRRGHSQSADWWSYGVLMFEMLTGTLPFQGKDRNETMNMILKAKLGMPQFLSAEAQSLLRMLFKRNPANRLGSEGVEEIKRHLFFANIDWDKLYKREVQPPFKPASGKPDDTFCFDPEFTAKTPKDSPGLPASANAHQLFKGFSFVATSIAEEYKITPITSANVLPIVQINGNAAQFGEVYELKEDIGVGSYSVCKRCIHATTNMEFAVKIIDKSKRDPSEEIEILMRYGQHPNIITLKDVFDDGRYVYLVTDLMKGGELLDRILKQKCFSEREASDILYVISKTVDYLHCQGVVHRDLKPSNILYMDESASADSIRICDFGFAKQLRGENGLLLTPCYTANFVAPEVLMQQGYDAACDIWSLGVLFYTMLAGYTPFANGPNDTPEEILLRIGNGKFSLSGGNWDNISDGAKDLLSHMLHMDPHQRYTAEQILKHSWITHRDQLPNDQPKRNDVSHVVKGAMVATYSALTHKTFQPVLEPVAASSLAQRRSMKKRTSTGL
Sequence of CLK4 (Q9HAZ1 whole entry, looked up): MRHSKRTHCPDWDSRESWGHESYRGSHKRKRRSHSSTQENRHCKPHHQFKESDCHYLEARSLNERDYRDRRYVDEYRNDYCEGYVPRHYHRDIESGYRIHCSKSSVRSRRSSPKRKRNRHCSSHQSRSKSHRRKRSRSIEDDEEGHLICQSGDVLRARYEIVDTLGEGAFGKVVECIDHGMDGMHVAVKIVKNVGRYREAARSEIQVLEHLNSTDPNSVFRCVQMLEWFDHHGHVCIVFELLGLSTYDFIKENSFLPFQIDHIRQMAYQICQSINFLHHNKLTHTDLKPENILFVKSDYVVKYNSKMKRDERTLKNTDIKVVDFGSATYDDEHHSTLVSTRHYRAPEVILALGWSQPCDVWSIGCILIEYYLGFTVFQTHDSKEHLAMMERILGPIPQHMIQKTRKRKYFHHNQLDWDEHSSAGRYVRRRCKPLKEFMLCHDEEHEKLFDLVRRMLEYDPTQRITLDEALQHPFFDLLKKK
Sequence of UniProt P80192 (P80192 whole entry, looked up): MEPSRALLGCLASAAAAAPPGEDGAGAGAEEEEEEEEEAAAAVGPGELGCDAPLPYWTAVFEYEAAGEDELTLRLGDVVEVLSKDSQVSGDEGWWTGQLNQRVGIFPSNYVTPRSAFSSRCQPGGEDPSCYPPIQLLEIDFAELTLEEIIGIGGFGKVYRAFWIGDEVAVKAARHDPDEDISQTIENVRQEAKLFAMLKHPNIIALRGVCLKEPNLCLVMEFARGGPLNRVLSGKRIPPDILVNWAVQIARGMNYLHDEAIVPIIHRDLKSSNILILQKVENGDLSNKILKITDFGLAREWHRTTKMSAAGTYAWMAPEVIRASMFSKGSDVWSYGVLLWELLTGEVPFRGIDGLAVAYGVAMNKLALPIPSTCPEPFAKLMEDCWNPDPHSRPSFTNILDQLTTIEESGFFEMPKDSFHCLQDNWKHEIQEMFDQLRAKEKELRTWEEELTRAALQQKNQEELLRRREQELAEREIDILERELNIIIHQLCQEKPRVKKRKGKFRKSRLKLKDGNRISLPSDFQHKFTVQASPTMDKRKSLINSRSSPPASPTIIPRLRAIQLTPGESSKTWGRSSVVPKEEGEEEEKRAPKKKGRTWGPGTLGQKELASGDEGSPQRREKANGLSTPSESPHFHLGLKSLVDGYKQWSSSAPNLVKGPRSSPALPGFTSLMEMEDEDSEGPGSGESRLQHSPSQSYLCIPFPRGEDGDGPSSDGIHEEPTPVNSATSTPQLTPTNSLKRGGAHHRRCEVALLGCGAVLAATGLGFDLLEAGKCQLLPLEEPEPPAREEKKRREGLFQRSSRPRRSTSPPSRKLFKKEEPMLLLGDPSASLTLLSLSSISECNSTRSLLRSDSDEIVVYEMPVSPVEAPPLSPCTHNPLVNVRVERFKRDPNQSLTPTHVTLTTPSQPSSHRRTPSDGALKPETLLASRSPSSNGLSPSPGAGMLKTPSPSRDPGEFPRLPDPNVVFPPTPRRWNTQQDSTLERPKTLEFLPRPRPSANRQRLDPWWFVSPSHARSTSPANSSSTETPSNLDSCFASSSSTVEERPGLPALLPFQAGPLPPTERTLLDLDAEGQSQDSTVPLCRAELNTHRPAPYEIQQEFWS

In general, pIC50 refers to the negative decadic logarithm of the IC50, by convention in mol/L. A high value points to a low IC50. As for `Cc1cc(Nc2cc(C(=O)NCCNC(=O)OC3CC/C=C/CCC3)nc(N3CCN(Cc4ccc(S(=O)(=O)F)cc4)CC3)n2)n[nH]1` (stereo not drawn), the negative logarithm of the IC50 (pIC50) in assay [1] (cell material: Lysate mix), in assay [2] (cell material: Lysate mix), in assay [3], in assay [4] (cell material: Lysate mix), in assay [5] (cell material: Lysate mix) and in assay [6] (cell material: Lysate mix) was less than 4.52 throughout. Also, the pIC50 in assay [7] was less than 4.52.

Consider `C#CCNC(=O)c1cc(Nc2cc(C3CC3)[nH]n2)nc(N2CCN(Cc3ccc(S(=O)(=O)F)cc3)CC2)n1`, for which the pIC50 is 5.74 in assay [8] (cell material: Jurkat cells); less than 4.52 in assay [9]; 5.68 in assay [10] (cell material: Jurkat cells); 6.1 in assay [1] (cell material: Jurkat cells); 4.85 in assay [1] (cell material: Jurkat lysate); 5.2 in assay [1] (cell material: Lysate mix). Also, the pIC50 in assay [2] (cell material: Jurkat cells) is 5.82; in assay [2] (cell material: Lysate mix), 5.84; in assay [3], 4.94; in [4] (cell material: Jurkat cells), 5.98; in assay [4] (cell material: Jurkat lysate), less than 4.52; in assay [4] (cell material: Lysate mix) it was 5.28. For the same molecule, the negative logarithm of the IC50 (pIC50) in assay [5] (cell material: Jurkat cells) was 6.42; in [5] (cell material: Jurkat lysate), 5.9; in assay [5] (cell material: Lysate mix), 6.2; in assay [6] (cell material: Jurkat cells) it was 5.86; in assay [6] (cell material: Jurkat lysate), less than 4.52; in [6] (cell material: Lysate mix) it was 5.59. In assay [11], the negative-log IC50 (pIC50) is less than 4.52.

With `CCNC(=O)c1cc(Nc2cc(C3CC3)[nH]n2)nc(N2CCN(Cc3ccc(S(=O)(=O)F)cc3)CC2)n1`, the negative logarithm of the IC50 (pIC50) was less than 4.52 in assay [8] (cell material: Lysate mix); 4.57 in assay [10] (cell material: Lysate mix); 5.05 in assay [1] (cell material: Lysate mix); 5.31 in assay [2] (cell material: Lysate mix); 4.87 in [3]; 5.34 in [4] (cell material: Lysate mix). Also, the negative-log IC50 (pIC50) was found to be 5.78 in assay [5] (cell material: Lysate mix), 5.78 in assay [6] (cell material: Lysate mix), 5.14 in assay [7] and 4.89 in assay [11].

Consider `C#CCNC(=O)c1cc(Nc2cc(C)[nH]n2)nc(N2CCN(Cc3ccc(S(=O)(=O)F)cc3)CC2)n1`, for which the pIC50 is less than 4.52 in [10] (cell material: Lysate mix); 4.77 in assay [2] (cell material: Lysate mix); less than 4.52 in [3]; less than 4.52 in assay [4] (cell material: Lysate mix); less than 4.52 in assay [7].

As for `O=C(NCCNC(=O)c1cc(Nc2cc(C3CC3)[nH]n2)nc(N2CCN(Cc3ccc(S(=O)(=O)F)cc3)CC2)n1)OC1CC/C=C/CCC1` (stereo not drawn), the negative-log IC50 (pIC50) in assay [8] (cell material: Jurkat cells) was less than 4.52; in assay [9], 4.72; in assay [1] (cell material: Jurkat lysate), less than 4.52; in assay [1] (cell material: Lysate mix), less than 4.52; in assay [2] (cell material: Jurkat cells) it was 5.54; in [2] (cell material: Jurkat lysate) it was less than 4.52. The pIC50 was less than 4.52 in assay [2] (cell material: Lysate mix); less than 4.52 in [3]; 5.71 in assay [4] (cell material: Jurkat cells); less than 4.52 in [4] (cell material: Jurkat lysate); less than 4.52 in assay [4] (cell material: Lysate mix); 6.19 in [5] (cell material: Jurkat cells). The negative logarithm of the IC50 (pIC50) in assay [5] (cell material: Jurkat lysate), in [5] (cell material: Lysate mix), in [6] (cell material: Jurkat lysate), in assay [6] (cell material: Lysate mix), in assay [7] and in assay [11] was less than 4.52 in each case.

As for `CCNC(=O)c1cc(Nc2cc(C)[nH]n2)nc(N2CCN(Cc3ccc(S(=O)(=O)F)cc3)CC2)n1`, the pIC50 in assay [9] was 4.74; in assay [1] (cell material: Lysate mix), less than 4.52; in [7] it was less than 4.52; in assay [11], less than 4.52.

For the origin of these results see the supplement of paper PMC12076712.
